The experiment deals with T1, human STING (hSTING) (Homo sapiens, UniProt Q86WV6).
T1 construct: host or cells: HEK-Blue ISG cells (HEK293-derived SEAP reporter line)
The experiment can be described thus: Inhibition test of intracellular human STING (hSTING) pathway using SEAP reporter cells (HEK-Blue ISG), stimulation with Compound 3. The class given is cell-based. On the set-up: hSTING inhibitory activity: scale not given here. The conditions noted are these: Compound 3 10 nM stimulation, 21 hours; for IC50: read-out: hSTING inhibitory activity. Here is the method:
Inhibition test of intracellular human STING (hSTING) pathway using reporter cells
Since STING activates the transcription factor IRF3 upon ligand stimulation, the activity of STING can be evaluated by a reporter assay using a secretory alkaline phosphatase (SEAP reporter) integrated downstream of an IRF-inducible promoter.
That is, the hSTING inhibitory activity of the test compound was evaluated using HEK-Blue™MISG cells (manufactured by Invivogen, #hkb-isg-1) incorporating a SEAP reporter. Activation of hSTING was performed by stimulation with the small molecule ligand Compound 3 as described in the literature (Ramanjulu, J. M., et al., Nature. 2018, 564 (7736), 439-443). HEK-Blue™MISG cells were seeded in a 96-well plate and cultured overnight at 37° C. in a 5% CO2 incubator. To each well of this cell culture plate, a test compound solution adjusted to a final concentration of 0.1 to 10 µM of the test compound was added, cultured for 1 hour in a CO2 incubator, and then Compound 3 (final concentration 10 nM) was added and further cultured in a CO2 incubator for 21 hours. After collecting the culture supernatant of each well, the reporter activity was measured by color development reaction with alkaline phosphatase.
The reporter activity of the test compound non-addition and Compound 3 addition group was set to 100%, and the reporter activity of the test compound non-addition and Compound 3 non-addition group was set to 0%. The IC50 value was determined by regression analysis of the inhibitory rate determined from the reporter activity at each compound concentration and the test compound concentration (logarithm).

Here are results for 32 molecules from US20240279205A1, “NOVEL BENZIMIDAZOLE DERIVATIVE” (Carna Biosciences, Inc., priority 2020, published 2024).

Structures can show the parent of a compound that is named as a salt.

T1 sequence (Q86WV6 whole entry H232R): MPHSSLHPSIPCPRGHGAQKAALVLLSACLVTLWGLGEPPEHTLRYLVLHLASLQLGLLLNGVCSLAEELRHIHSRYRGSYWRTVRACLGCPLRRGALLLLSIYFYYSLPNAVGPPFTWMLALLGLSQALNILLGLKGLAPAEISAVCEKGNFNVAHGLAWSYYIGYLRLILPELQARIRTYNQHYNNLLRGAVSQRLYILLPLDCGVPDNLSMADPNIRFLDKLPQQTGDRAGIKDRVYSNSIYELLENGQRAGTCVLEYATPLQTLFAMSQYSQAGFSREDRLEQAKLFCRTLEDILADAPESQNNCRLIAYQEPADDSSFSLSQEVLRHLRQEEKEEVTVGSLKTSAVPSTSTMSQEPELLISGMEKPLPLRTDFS

Consider `COc1ccc2nc(Nc3c[nH]c4ccc(Cl)nc34)n(C)c2c1` [Embodiment 161, N-(5-Chloro-1H-pyrrolo[3,2-b]pyridin-3-yl)-6-methoxy-1-methyl-1H-benzo[d]imidazol-2-amine], for which the IC50 is at least 10 µM.

`C1=C(c2ccnc3c(Nc4nc5cc(Oc6ccccc6)ccc5[nH]4)c[nH]c23)CCCC1` [Embodiment 162, N-[7-(Cyclohex-1-en-1-yl)-1H-pyrrolo[3,2-b]pyridin-3-yl]-5-phenoxy-1H-benzo[d]imidazole-2-amine]: the hSTING inhibitory activity result is “* *”.

In the case of `c1ccc(Oc2ccc3[nH]c(Nc4c[nH]c5c(-c6ccncc6)ccnc45)nc3c2)cc1` [Embodiment 163, 5-phenoxy-N-[7-(pyridin-4-yl)-1H-pyrrolo[3,2-b]pyridin-3-yl]-1H-benzo[d]imidazol-2-amine], the IC50 was at least 10 µM.

As for `c1ccc(Oc2ccc3[nH]c(Nc4c[nH]c5c(-c6cccnc6)ccnc45)nc3c2)cc1` [Embodiment 164, 5-phenoxy-N-[7-(pyridin-3-yl)-1H-pyrrolo[3,2-b]pyridin-3-yl]-1H-benzo[d]imidazol-2-amine], the IC50 lay within 1 to 10 µM.

Regarding `Cn1ccc(-c2ccnc3c(Nc4nc5cc(Oc6ccccc6)ccc5[nH]4)c[nH]c23)n1` [Embodiment 165, N-[7-(1-methyl-1H-pyrazol-3-yl)-1H-pyrrolo[3,2-b]pyridin-3-yl]-5-phenoxy-1H-benzo[d]imidazole-2-amine], the IC50 fell in the range of 1 to 10 µM.

As to `CN(C)C(=O)c1cccc2[nH]c(Nc3c[nH]c4ccc(Cl)nc34)nc12` [Embodiment 166, 2-[(5-Chloro-1H-pyrrolo[3,2-b]pyridin-3-yl)amino]-N,N-dimethyl-1H-benzo[d]imidazole-4-carboxamide], the IC50 is at least 10 µM.

Turning to `COCCn1c(Nc2c[nH]c3ccc(Cl)nc23)nc2c(C(F)(F)F)cccc21` [Embodiment 167, N-(5-Chloro-1H-pyrrolo[3,2-b]pyridin-3-yl)-1-(2-methoxyethyl)-4-(trifluoromethyl)-1H-benzo[d] imidazole-2-amine], the IC50 is at least 10 µM.

Take `Cn1c(Nc2c[nH]c3ccc(Cl)nc23)nc2cc(F)ccc21` [Embodiment 168, N-(5-Chloro-1H-pyrrolo[3,2-b]pyridin-3-yl)-5-fluoro-1-methyl-1H-benzo[d]imidazol-2-amine formate]: the IC50 was at least 10 µM.

With `C=Cc1ccc2[nH]cc(Nc3nc4cc(C(F)(F)F)ccc4n3C)c2n1` [Embodiment 171, 1-methyl-5-(trifluoromethyl)-N-(5-vinyl-1H-pyrrolo[3,2-b]pyridin-3-yl)-1H-benzo[d]imidazol-2-amine], the IC50 lay in the range of 1 to 10 µM.

As for `Cn1c(Nc2c[nH]c3ccc(Cl)nc23)nc2cc(Cl)ccc21` [Embodiment 172, 5-Chloro-N-(5-chloro-1H-pyrrolo [3,2-b]pyridin-3-yl)-1-methyl-1H-benzo[d]imidazol-2-amine], the IC50 fell in the range of 1 to 10 µM.

Regarding `CCc1ccc2[nH]cc(Nc3nc4cc(C(F)(F)F)ccc4n3C)c2n1` [Embodiment 173, N-(5-ethyl-1H-pyrrolo[3,2-b]pyridin-3-yl)-1-methyl-5-(trifluoromethyl)-1H-benzo[d]imidazol-2-amine], the IC50 is at least 10 µM.

As to `Cn1c(Nc2c[nH]c3ccc(Cl)nc23)nc2ccc(Oc3ccc(C#N)cc3)cc21` [Embodiment 174, 4-({2-[(5-chloro-1H-pyrrolo[3,2-b]pyridin-3-yl)amino]-1-methyl-1H-benzo[d]imidazol-6-yl} Oxy)benzonitrile], the IC50 is at least 10 µM.

For `Fc1cc(C2CCOCC2)cc2nc(Nc3c[nH]c4ccc(Cl)nc34)[nH]c12` [Embodiment 175, N-(5-Chloro-1H-pyrrolo[3,2-b]pyridin-3-yl)-7-fluoro-5-(tetrahydro-2H-pyran-4-yl)-1H-benzo[d]imidazol-2-amine], the hSTING inhibitory activity result was “* *”.

Take `Cc1c(F)ccc2[nH]c(Nc3c[nH]c4ccc(Cl)nc34)nc12` [Embodiment 176, N-(5-Chloro-1H-pyrrolo[3,2-b]pyridin-3-yl)-5-fluoro-4-methyl-1H-benzo[d]imidazol-2-amine formate]: the IC50 was 1 to 10 µM.

`O=[N+]([O-])c1cc2[nH]c(Nc3c[nH]c4ccc(Cl)nc34)nc2cc1F` [Embodiment 177, N-(5-Chloro-1H-pyrrolo[3,2-b]pyridin-3-yl)-5-fluoro-6-nitro-1H-benzo[d]imidazol-2-amine]: the IC50 lay in the range of 1 to 10 µM.

Turning to `COCCn1c(Nc2c[nH]c3ccc(Cl)nc23)nc2ccc(C(F)(F)F)cc21` [Embodiment 179, N-(5-chloro-1H-pyrrolo[3,2-b]pyridin-3-yl)-1-(2-methoxyethyl)-6-(trifluoromethyl)-1H-benzo[d]imidazol-2-amine], the IC50 is at least 10 µM.

With `COCCn1c(Nc2c[nH]c3ccc(Cl)nc23)nc2cccc(C(F)(F)F)c21` [Embodiment 180, N-(5-chloro-1H-pyrrolo[3,2-b]pyridin-3-yl)-1-(2-methoxyethyl)-7-(trifluoromethyl)-1H-benzo[d]imidazol-2-amine], the IC50 was at least 10 µM.

In the case of `COCCn1c(Nc2c[nH]c3ccc(Cl)nc23)nc2cc(-c3ccccc3)ccc21` [Embodiment 181], the IC50 is at least 10 µM.

With `COCCn1c(Nc2c[nH]c3ccc(Cl)nc23)nc2ccc(-c3ccccc3)cc21` [Embodiment 182], the IC50 is at least 10 µM.

For the molecule `Cn1c(Nc2c[nH]c3ccc(Cl)nc23)nc2c(F)c(F)ccc21` [Embodiment 183, N-(5-Chloro-1H-pyrrolo[3,2-b]pyridin-3-yl)-4,5-difluoro-1-methyl-1H-benzo[d]imidazol-2-amine], the IC50 is at least 10 µM.

Consider `Cn1c(Nc2c[nH]c3ccc(Cl)nc23)nc2ccc(F)c(F)c21` [Embodiment 184, N-(5-Chloro-1H-pyrrolo[3,2-b]pyridin-3-yl)-6,7-difluoro-1-methyl-1H-benzo[d]imidazol-2-amine], for which the IC50 was at least 10 µM.

Take `Fc1cc2[nH]c(Nc3c[nH]c4ccc(Cl)nc34)nc2cc1Oc1ccccc1` [Embodiment 193, N-(5-Chloro-1H-pyrrolo[3,2-b]pyridin-3-yl)-6-fluoro-5-phenoxy-1H-benzo[d]imidazol-2-amine]: the hSTING inhibitory activity result is listed as “* *”.

For `Cn1c(Nc2c[nH]c3ccc(Cl)nc23)nc2cc(F)c(Oc3ccccc3)cc21` [Embodiment 194, N-(5-Chloro-1H-pyrrolo[3,2-b]pyridin-3-yl)-5-fluoro-1-methyl-6-phenoxy-1H-benzo[d]imidazol-2-amine], the hSTING inhibitory activity entry is given as “* *”.

Consider `Cn1c(Nc2c[nH]c3ccc(Cl)cc23)nc2cc(C3CCOCC3)ccc21` [Embodiment 197, N-(5-Chloro-1H-indol-3-yl)-1-methyl-5-(tetrahydro-2H-pyran-4-yl)-1H-benzo[d]imidazole-2-amine formate], for which the hSTING inhibitory activity result is “* *”.

Consider `Cn1c(Nc2c[nH]c3ccc(Cl)nc23)nc2cc(Oc3cccnc3)ccc21` [Embodiment 198, N-(5-chloro-1H-pyrrolo[3,2-b]pyridin-3-yl)-1-methyl-5-(pyridin-3-yloxy)-1H-benzo[d]imidazole-2-amine], for which the IC50 is at least 10 µM.

For the molecule `COCCn1c(Nc2c[nH]c3ccc(Cl)nc23)nc2c(F)c(F)ccc21` [Embodiment 200, N-(5-chloro-1H-pyrrolo[3,2-b]pyridin-3-yl)-4,5-difluoro-1-(2-methoxyethyl)-1H-benzo[d] imidazole-2-amine], the IC50 is at least 10 µM.

For the molecule `COCCn1c(Nc2c[nH]c3ccc(Cl)nc23)nc2ccc(F)c(F)c21` [Embodiment 201, N-(5-chloro-1H-pyrrolo[3,2-b]pyridin-3-yl)-6,7-difluoro-1-(2-methoxyethyl)-1H-benzo[d]imidazole-2-amine], the IC50 is at least 10 µM.

On to `COCCn1c(Nc2c[nH]c3ccc(Cl)nc23)nc2c(F)cc(F)cc21` [Embodiment 202, N-(5-chloro-1H-pyrrolo[3,2-b]pyridin-3-yl)-4,6-difluoro-1-(2-methoxyethyl)-1H-benzo[d]imidazole-2-amine], for which the IC50 was at least 10 µM.

On to `Cn1c(Nc2c[nH]c3ccc(Cl)nc23)nc2c(F)cc(F)cc21` [Embodiment 203, N-(5-Chloro-1H-pyrrolo[3,2-b]pyridin-3-yl)-4,6-difluoro-1-methyl-1H-benzo[d]imidazol-2-amine], for which the IC50 was at least 10 µM.

For the molecule `Cn1c(Nc2c[nH]c3ccc(Cl)nc23)nc2cc(F)cc(F)c21` [Embodiment 204, N-(5-Chloro-1H-pyrrolo[3,2-b]pyridin-3-yl)-5,7-difluoro-1-methyl-1H-benzo[d]imidazol-2-amine], the IC50 was at least 10 µM.

As to `COCCn1c(Nc2c[nH]c3ccc(Cl)nc23)nc2cc(F)cc(F)c21` [Embodiment 205, N-(5-chloro-1H-pyrrolo[3,2-b]pyridin-3-yl)-5,7-difluoro-1-(2-methoxyethyl)-1H-benzo[d]imidazole-2-amine], the IC50 was at least 10 µM.

For `COCCn1c(Nc2c[nH]c3ccc(Cl)nc23)nc2cc(Oc3cccnc3)ccc21` [Embodiment 206, N-(5-chloro-1H-pyrrolo[3,2-b]pyridin-3-yl)-1-(2-methylxhetyl)-5-(pyridin-3-yloxy)-1H-benzo[d] imidazol-2-amine], the IC50 was at least 10 µM.
